Laboratory results: patent US20120276049A1, “Methods and compositions for amelioration of autoimmune disease using fusion proteins of anti-dendritic cell receptor antibody to peptide sequences” (President and Fellows of Harvard College, priority 2009, published 2012)

Assays:
[1] = molecular target: DEC205 receptor (mouse), on splenic CD11c+ dendritic cells of SJL mice (mouse) (UniProt Q60767); assay: cell-based or functional assay
[2] = tested on: PLP139-151-induced EAE in recipient SJL mice; assay: Adoptive transfer of CD4+ T cells from preimmunized SJL mice, then EAE induction in recipients; type: in vivo, mouse; conditions: donors coimmunized with 500 μg copolymer
Experimental: SJL mice were preimmunized on day 10 i.p. with each of 1 μg fusion monoclonal antibodies: DEC205-PLP-specific (closed diamonds; αDEC205/PLP mAb CD4^+ T cells) or control GL117-PLP-specific (closed squares; GL117/PLP mAb CD4^+ T cells), or control treatment with 500 μg of the synthetic amino acid copolymer (poly (F,Y,A,K)n; closed light gray circles; PLP139-151+FYAK CD4^+ T cells) or no treatment (closed triangles). The 5×10^6 CD4+ T cells, enriched splenocytes obtained from preimmunized mice, were adoptively transferred i.v. into the tail veins of non-treated mice, followed by immunization on day 1 with 75 μg of PLP139-151 in CFA and PT i.v. the following day. Controls received PBS injections. Mean disease scores of five mice/group are shown. […]
SJL mice herein were preimmunized at day 10 i.p. with 1 μg of DEC205-PLP specific monoclonal antibodies (closed diamonds; αDEC205/PLP mAb) only or not treated (closed triangles) in a control group. Mice were monitored for clinical signs of EAE for 30 days. […]
SJL/J mice were preimmunized (day 10, 15, or 20) with 1 μg i.p. of fusion monoclonal antibodies (DEC205-PLP specific monoclonal antibodies, DEC205-HA specific monoclonal antibodies, DEC205 specific monoclonal antibodies alone, or GL117-PLP specific monoclonal antibodies). […] The mice were scored daily for 30 days. […]

[3] = tested on: patients with secondary progressive MS; conditions: weekly s.c. 3 or 10 mg; 50 patients; cited from earlier work
[4] = tested on: Experimental Autoimmune Encephalomyelitis (EAE, the mouse model of MS); conditions: compared with Copaxone; cited from earlier work
[5] = tested on: relapsing-remitting forms of MS; conditions: cited from earlier work
[6] = in vivo; cited from earlier work

Sequence of UniProt Q60767 (Q60767 28-1723): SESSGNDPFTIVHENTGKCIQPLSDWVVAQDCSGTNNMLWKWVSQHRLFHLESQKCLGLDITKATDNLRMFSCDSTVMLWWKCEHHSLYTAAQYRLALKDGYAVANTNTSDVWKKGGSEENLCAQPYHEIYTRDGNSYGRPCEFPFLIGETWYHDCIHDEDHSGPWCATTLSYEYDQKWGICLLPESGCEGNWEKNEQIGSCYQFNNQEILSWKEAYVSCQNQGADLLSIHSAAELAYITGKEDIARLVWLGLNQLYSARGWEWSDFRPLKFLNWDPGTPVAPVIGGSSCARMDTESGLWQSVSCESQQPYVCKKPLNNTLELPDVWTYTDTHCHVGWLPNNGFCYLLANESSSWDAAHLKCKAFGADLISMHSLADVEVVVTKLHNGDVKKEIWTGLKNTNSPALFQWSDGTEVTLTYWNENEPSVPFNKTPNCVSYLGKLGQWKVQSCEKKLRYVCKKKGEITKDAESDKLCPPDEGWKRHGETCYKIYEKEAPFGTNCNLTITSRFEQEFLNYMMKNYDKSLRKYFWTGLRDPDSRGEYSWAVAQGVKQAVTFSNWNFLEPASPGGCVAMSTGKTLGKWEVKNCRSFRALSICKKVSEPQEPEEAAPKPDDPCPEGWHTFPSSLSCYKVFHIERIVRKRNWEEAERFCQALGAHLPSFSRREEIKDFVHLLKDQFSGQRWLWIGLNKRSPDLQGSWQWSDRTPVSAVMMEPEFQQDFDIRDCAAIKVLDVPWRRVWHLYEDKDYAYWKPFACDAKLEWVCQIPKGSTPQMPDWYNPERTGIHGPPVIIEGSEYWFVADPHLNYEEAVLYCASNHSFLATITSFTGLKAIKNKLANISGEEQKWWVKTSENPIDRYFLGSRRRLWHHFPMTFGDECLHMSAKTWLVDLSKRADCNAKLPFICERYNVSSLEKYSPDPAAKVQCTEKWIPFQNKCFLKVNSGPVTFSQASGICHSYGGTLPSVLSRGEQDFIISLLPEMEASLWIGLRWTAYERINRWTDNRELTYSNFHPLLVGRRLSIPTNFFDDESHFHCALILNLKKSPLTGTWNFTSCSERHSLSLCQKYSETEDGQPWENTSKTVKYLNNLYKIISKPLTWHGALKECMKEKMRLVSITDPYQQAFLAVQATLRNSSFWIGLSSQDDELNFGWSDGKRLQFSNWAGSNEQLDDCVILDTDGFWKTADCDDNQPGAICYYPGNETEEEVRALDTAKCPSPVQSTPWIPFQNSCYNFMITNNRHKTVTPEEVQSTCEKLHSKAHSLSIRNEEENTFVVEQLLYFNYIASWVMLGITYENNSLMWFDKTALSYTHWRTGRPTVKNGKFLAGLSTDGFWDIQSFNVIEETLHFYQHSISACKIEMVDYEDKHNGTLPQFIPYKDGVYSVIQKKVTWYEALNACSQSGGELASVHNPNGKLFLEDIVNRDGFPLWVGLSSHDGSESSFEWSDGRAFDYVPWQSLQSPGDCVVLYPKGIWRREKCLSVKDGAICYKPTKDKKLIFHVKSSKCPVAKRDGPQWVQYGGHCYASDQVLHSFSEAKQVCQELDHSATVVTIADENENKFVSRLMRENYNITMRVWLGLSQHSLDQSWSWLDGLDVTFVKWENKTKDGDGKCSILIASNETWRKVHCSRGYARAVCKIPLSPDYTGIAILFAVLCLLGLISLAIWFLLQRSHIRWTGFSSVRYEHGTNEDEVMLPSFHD

**Q.** For “anti-DEC205-PLP139-151 fusion monoclonal antibody (cloned NLDC-145 with PLP139-151 fused to the C terminus of the Ig heavy chain)”, which IFN-γ secretion in day 3 coculture supernatants (cytokine bead array) [1] is on record?
**A.** Its IFN-γ secretion in day 3 coculture supernatants (cytokine bead array) is 10 fold.

**Q.** With poly (F,Y,A,K)n [FYAK] as the substance, how does the “EAE induction in recipients of CD4+ T cells” value [2] read?
**A.** The value was “efficiently prevented EAE induction”.

**Q.** And the “number of Gadolinium-enhancing lesions” value [3]?
**A.** Its value is “severely reduce”.

**Q.** And the “effectiveness in treatment of EAE” value [4]?
**A.** Its value is “far more effective than Copaxone”.

**Q.** Which results are given for poly(Y, E, A, K)n [Copaxone ®]?
**A.** reduction of relapse rate [5]: 30%; side effects [6]: severe injection
